{
  "source": "patent US10766857B2",
  "about": "“Compound having BLT inhibitory activity and composition, for preventing or treating inflammatory diseases, comprising same as active ingredient” (DONGGUK UNIVERSITY INDUSTRY-ACADEMIC COOPERATION FOUNDATION, priority 2015, dated 2020)",
  "key": {"[1]": {"system": "MDA-MB-231 cells", "test": "Intracellular ROS generation (DCF fluorescence)", "type": "cell-based", "conditions": "30 minutes treatment", "procedure": "(§1) The breast cancer cells such as the MDA-MB-231 cells were obtained from Korean Cell Line Bank (Seoul, Korea), and the MDA-MB-435 cells were provided by J. H. Lee (Asan Medical Center, Seoul, Korea). These cells were cultured in an RPMI 1640 medium (Invitrogen) containing 10% FBS (Life Technologies, Inc.), 1% penicillin (50 units/mL), and an antibiotic antimycotic solution (Life Technologies, Inc.) at 37° C. under a 5% CO2 condition.\n(§2) Intracellular ROS (H2O2) generated according to the treatment of the compound of the present invention (LMT-696) was measured as a function of DCF fluorescence. Specifically, before ROS measurement, 2×10^5 cells were grown in 60-mm wells, and cultured in a FBS-supplemented RPMI 1640 medium for 24 hours. To evaluate the effect of the compound of the present invention, the cells were treated with the compound (LMT-696) for 30 minutes. To measure the intracellular ROS, the cells were cultured with 20 μM of a H2O2-sensitive fluorescent material such as H2DCFDA [Molecular Probes (Eugene, Oreg.)] at 37° C. in a dark and humidified CO2 incubator for 20 minutes. […] A DCF fluorescent degree was measured with excitation and emission wavelengths at 488 and 530 nm, respectively, using a FACS Calibur flow cytometer (Becton Dickinson, N.J.)."}, "[2]": {"system": "MDA-MB-435 cells", "test": "Intracellular ROS generation (DCF fluorescence)", "type": "cell-based", "conditions": "30 minutes treatment", "procedure": "as §1, §2"}, "[3]": {"system": "cancer cells (MDA-MB-231)", "test": "Metastasis of breast cancer cells in nude mice", "type": "in vivo", "conditions": "MDA-MB-231 in nude mice, i.p.; LMT-696 and LY255283 2.5 mg/kg, U75302 0.25 mg/kg; 15 weeks", "procedure": "An experiment for the metastasis of breast cancer cells according to the treatment of the compound of the present invention was approved by the Ethics Committee of Korea University, and all experimental animals used in this experiment were treated according to the approved guidelines of the Korea University Animal Care and Use Committee. Six-week-old female nude mice (Charles River, Wilmington, Mass.) were injected with cancer cells to confirm cancer cell metastasis. The breast cancer cells were pre-treated with the compound of the present invention (LMT-696, 10 μM), LY255283, U75302 and DMSO, and 24 hours later, harvested with trypsin-EDTA, resuspended in PBS, and then 2×10^6 of the breast cancer cells were intraperitoneally injected into mice anesthetized with zoletil (50 mg/kg). After five days, the compound of the present invention (LMT-696; 2.5 mg/kg), LY255283 (2.5 mg/kg), U75302 (0.25 mg/kg) and DMSO were injected intraperitoneally three times every five days. At 15 weeks after the injection of the breast cancer cells, the mice were dissected to observe the cancer cell metastasis."}, "[4]": {"system": "MDA-MB-231 cells", "test": "Matrigel invasion of breast cancer cells", "type": "cell-based", "procedure": "as §1\n(§3) To detect the invasion of breast cancer cells according to the treatment of the compound of the present invention, BioCoat Matrigel Invasion Chambers (BD Biosciences, Bedford, Mass.) were used. 5×10^4 of the breast cancer cells were harvested with trypsin-EDTA, resuspended in 0.5% serum-containing RPMI 1640, and transferred to Matrigel inserts. Five percent serum-containing RPMI 1640 was added to the lower chamber, and the cells were cultured at 37° C. for 36 hours. Each filter was fixed with methanol for 3 minutes, and stained with hematoxylin and eosin for 10 minutes. The invasiveness of the cancer cells was quantified by cell counts on the lower side of the filter under an optical microscope (magnification, 200×). In each analysis, 6 fields were quantified. Each sample was analyzed twice, and the analysis was repeated three times."}, "[5]": {"system": "MDA-MB-435 cells", "test": "Matrigel invasion of breast cancer cells", "type": "cell-based", "procedure": "as §1, §3"}, "[6]": {"biological_target": "T1, BLT1 (Homo sapiens, UniProt Q15722)", "T1 construct": "expressed in transfected cells; host or cells: CHO cells stably expressing BLT1 (CHO-BLT1)", "T1 sequence (Q15722 whole entry, species assumed)": "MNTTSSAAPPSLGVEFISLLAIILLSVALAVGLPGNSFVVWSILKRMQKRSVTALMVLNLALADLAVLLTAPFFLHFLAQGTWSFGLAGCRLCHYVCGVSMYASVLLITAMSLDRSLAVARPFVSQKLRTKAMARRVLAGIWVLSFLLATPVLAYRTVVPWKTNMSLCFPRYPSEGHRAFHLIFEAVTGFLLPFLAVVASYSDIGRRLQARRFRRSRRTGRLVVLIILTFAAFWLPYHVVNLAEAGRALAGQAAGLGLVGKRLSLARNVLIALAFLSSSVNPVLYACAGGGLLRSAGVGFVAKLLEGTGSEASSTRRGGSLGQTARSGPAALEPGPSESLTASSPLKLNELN", "test": "LTB4-induced chemotactic motility, Transwell, CHO-BLT1 cells", "type": "cell-based", "conditions": "10 μM pre-treatment, LTB4 10 nM", "procedure": "Chemotactic motility was analyzed using a Transwell chamber including a polycarbonate filter (8-μm pore size, Corning Costar) with a 6.5-mm diameter. Specifically, the lower surface of the filter was coated with 10 μg/mL fibronectin in a serum-free RPMI 1640 medium at 37° C. for 1 hour. The experiment was performed by placing the filter dried and coated with RPMI 1640 media containing various amounts of LTB4 in the lower wells of the Transwell chamber, and loading CHO cells stably expressing BLT1 and BLT2 into the upper wells containing serum-free RPMI 1640 media finally at 2×10^4 cells/100 μL. To evaluate the effect of inhibitors, the cells were pre-treated with each inhibitor for 30 minutes before dispensing. After the cells were cultured at 37° C. in 5% CO2 for 3 hours, the filters were fixed with methanol for 3 minutes, and stained with hematoxylin and eosin for 10 minutes. In the experiment, the cells were BLT2-expressing cells (CHO-BLT2 cells) and BLT1-expressing cells (CHO-BLT1 cells), and LY255283 and U75302 were used as positive controls for each type of the cells, and BLT2 ligand LTB4, (300 nM), BLT1 ligand LTB4 (10 nM), and lysophosphatidic acid (LPA; 100 nM) were used as comparative controls. The chemotactic motility was quantitatively analyzed by counting the cells on the lower side of the filter under an optical microscope (magnification, 200×). For each analysis, 6 fields were subjected to counting, each sample was analyzed twice, and the analysis was repeated three times."}},
  "data": [
    {"smiles": "CCCCC(=O)N(CC#Cc1ccc(C(=O)N2CCN(C(C)C)CC2)cc1)c1ccccc1", "note": "[LMT-696, N-(3-(4-(4-isopropylpiperazine-1-carbonyl)phenyl)prop-2-ynyl)-N-phenylpentaneamide]", "values": [
      {"measurement": "inhibition of ROS generation", "setting": "[1]", "result": "significant inhibition"},
      {"measurement": "inhibition of ROS generation", "setting": "[2]", "result": "significant inhibition"},
      {"measurement": "metastasis of the cancer cells inhibited as compared with the control", "setting": "[3]", "result": 40, "unit": "%"},
      {"measurement": "cancer cell invasion inhibited", "setting": "[4]", "result": 70, "unit": "%"},
      {"measurement": "cancer cell invasion inhibited", "setting": "[5]", "result": 56, "unit": "%"},
      {"measurement": "inhibitory effect on chemotactic motility", "setting": "[6]", "result": "did not exhibit the inhibitory effect"}
    ]}
  ]
}
